Measured values published in PubChem BioAssay AID2060609 (Molecular Pharmacology Branch, DTP, NCI, 2025).

Tested on: 855422-203-R-J1-PDC complex spheroids, viability
Experiment: Anticancer human tumor 855422-203-R-J1-PDC patient-derived bladder carcinoma cell line growth inhibition [CLK]
Conditions: for IC50: curve of first compound; for viability, T/C: stronger effect = lower value
From the text: A high-throughput screen of multi-cell type tumor spheroids was designed to identify active combinations of […] and targeted small molecules. Complex spheroids include a stromal component modeled by human endothelial cells (HUVEC) and fibroblasts modeled by human mesenchymal stem cells (MSCs). The concentration ranges selected for each drug and investigational agent were based upon clinically achievable concentrations if the clinical Cmax of the agent was known.
Compounds. The drugs and investigational agents: cirtuvivint (SM08502; NSC835563), CC-671 (NSC850746), vemurafenib (NSC761431), tapotoclax (NSC804041), sotorasib (NSC818433), adagrasib (NSC831453), MRTX-1133 (NSC836407), BAY2416964 (NSC825713), copanlisib (NSC816437), inavolisib (NSC800729), abemaciclib (NSC768073), osimertinib (NSC779217), entinostat (NSC756642), eltanexor (KPT-8602, NSC794443), venetoclax (NSC766270), ceralasertib (NSC777638), bortezomib (NSC756655), olaparib (NSC753686), talazoparib (NSC767125), alisertib (NSC759677), peposertib (NSC802822), gemcitabine (NSC613327), 5-fluorouracil (NSC19893), SN-38 (NSC673596), oxaliplatin (NSC266046), paclitaxel (NSC125973), and doxorubicin (NSC123127), were obtained from the National Cancer Institute (NCI) Developmental Therapeutics Program Chemical Repository. The FDA-approved anticancer drug set is available from the Developmental Therapeutics Program at https://dtp.cancer.gov/organization/dscb/obtaining/available plates.htm. […] The stock solutions were prepared in dimethyl sulfoxide (DMSO, Sigma-Aldrich, St. Louis, MO, cat. D2650), except for the platinum complexes which were prepared in saline (Quality Biological, Gaithersburg, MD, cat. 114-055-101), at 800-fold the tested concentration and stored at -70 degrees C prior to their use. All drugs and investigational agents were tested over a range starting from a high concentration at or near the clinical Cmax and decreasing in half-log increments. If the clinical Cmax for an agent had not been determined, the highest concentration tested was 10 microM.
Cell Culture. All cells were maintained in an incubator at 37 degrees C and 5% CO2 with 95% humidity. The PDC lines were cultured according to standard operating procedures established by the NCI PDMR. Briefly, all PDCs were thawed and cultured in Matrigel-coated flasks prepared with a working solution of 1X Ham's F-12 nutrient mix, without supplementation (Invitrogen, Waltham, MA, cat. 11765054), 100 U/mL penicillin-streptomycin (Invitrogen, cat. 15140122), and 2.5% Matrigel (Corning Inc., Corning, NY, cat. 354248) for the first three passages. The 947758-054-R-J2-PDC line was cultured in 6B/Colon 1A media, which includes advanced DMEM/F-12 (Thermo Fisher Scientific, cat. 12634028), 10 mM HEPES (Thermo Fisher Scientific, cat. 15630080), 1X GlutaMAX supplement (Thermo Fisher Scientific, cat. 35050061), 0.1 mg/mL primocin (InvivoGen, cat. ant-pm-2), 10% defined fetal bovine serum, heat inactivated (HyClone Laboratories Inc., cat. SH30070.03HI), 1.25 mM N-Acetyl-L-cysteine (Sigma-Aldrich, cat. A9165), 10 mM nicotinamide (Sigma-Aldrich, cat. N0636), 1X B-27 supplement (Thermo Fisher Scientific, cat. 17504044), 1X N-2 supplement (Thermo Fisher Scientific, cat. 17502048), and 10 microM Y-27632 dihydrochloride (Tocris Bioscience, cat. 1254). The 876862-298-R-J1-PDC was cultured in 6E media, which includes all 6B/Colon 1A media components plus 50% L-WRN conditioned media (ATCC, cat. CRL-3276), 50 ng/mL recombinant human EGF recombinant protein (hEGF; Thermo Fisher Scientific, cat. PHG0311), 10 ng/mL recombinant human fibroblast growth factor 10 (hGFG-10; PeproTech, cat. 100-26), 1 ng/mL recombinant human fibroblast growth factor 2 (hFGF-2; PeproTech, cat. 100-18B), and 1 µM prostaglandin E2 (PGE2; Tocris, cat. 2296). The 227483-062-R1-J1-PDC line was cultured in Panc media, containing all 6E components except hFGF-2, with the addition of 500 nM SB-431542 (Selleckchem, cat. S1067) and 10 nM gastrin (Tocris, cat. 3006). […]

[1] = second compound 0.0316 µM, first compound 0.0316 µM
[2] = second compound 0.0316 µM, first compound 0.1 µM
[3] = second compound 0.0316 µM, first compound 0.316 µM
[4] = second compound 0.0316 µM, first compound 1 µM
[5] = second compound 0.1 µM, first compound 0.0316 µM
[6] = second compound 0.1 µM, first compound 0.1 µM
[7] = second compound 0.1 µM, first compound 0.316 µM
[8] = second compound 0.1 µM, first compound 1 µM
[9] = second compound 0.316 µM, first compound 0.0316 µM
[10] = second compound 0.316 µM, first compound 0.1 µM
[11] = second compound 0.316 µM, first compound 0.316 µM
[12] = second compound 0.316 µM, first compound 1 µM
[13] = second compound 1 µM, first compound 0.0316 µM
[14] = second compound 1 µM, first compound 0.1 µM
[15] = second compound 1 µM, first compound 0.316 µM
[16] = second compound 1 µM, first compound 1 µM
[17] = second compound 3.16 µM, first compound 0.0316 µM
[18] = second compound 3.16 µM, first compound 0.1 µM
[19] = second compound 3.16 µM, first compound 0.316 µM
[20] = second compound 3.16 µM, first compound 1 µM
[21] = second compound 10 µM, first compound 0.0316 µM
[22] = second compound 10 µM, first compound 0.1 µM
[23] = second compound 10 µM, first compound 0.316 µM
[24] = second compound 10 µM, first compound 1 µM
[25] = second compound 0.0316 µM, first compound 0.00316 µM
[26] = second compound 0.0316 µM, first compound 0.01 µM
[27] = second compound 0.1 µM, first compound 0.00316 µM
[28] = second compound 0.1 µM, first compound 0.01 µM
[29] = second compound 0.316 µM, first compound 0.00316 µM
[30] = second compound 0.316 µM, first compound 0.01 µM
[31] = second compound 1 µM, first compound 0.00316 µM
[32] = second compound 1 µM, first compound 0.01 µM
[33] = second compound 3.16 µM, first compound 0.00316 µM
[34] = second compound 3.16 µM, first compound 0.01 µM
[35] = second compound 10 µM, first compound 0.00316 µM
[36] = second compound 10 µM, first compound 0.01 µM
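Also: spheroids exposed to drugs for seven days before readout.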
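For viability, T/C in this document: 100% = DMSO vehicle control wells.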

CC(Nc1ccc2c(c1)OCCn1cc(N3C(=O)OCC3C(F)F)nc1-2)C(N)=O (stereo unspecified) + CN1CCN(c2cc(C(=O)Nc3cc4cc(-c5cnn(C)c5)ccc4cn3)ccn2)CC1
IC50 (second compound 0.0316 µM): 280 nM | IC50 (second compound 0.1 µM): 242 nM | IC50 (second compound 0.316 µM): < 31.6 nM | IC50 (second compound 1 µM): < 31.6 nM | IC50 (second compound 3.16 µM): < 31.6 nM | IC50 (second compound 10 µM): < 31.6 nM | viability, T/C [1]: 88.2% | viability, T/C [2]: 66.4% | viability, T/C [3]: 46.1% | viability, T/C [4]: 35.4% | viability, T/C (second compound 0.0316 µM, first compound 3.16 µM): 26.4% | viability, T/C (second compound 0.0316 µM, first compound 10 µM): 15.5% | viability, T/C [5]: 72.1% | viability, T/C [6]: 69.4% | viability, T/C [7]: 40.8% | viability, T/C [8]: 30.4% | viability, T/C (second compound 0.1 µM, first compound 3.16 µM): 20.1% | viability, T/C (second compound 0.1 µM, first compound 10 µM): 13.7% | viability, T/C [9]: 7.06% | viability, T/C [10]: 6.03% | viability, T/C [11]: 4.86% | viability, T/C [12]: 2.74% | viability, T/C (second compound 0.316 µM, first compound 3.16 µM): 2.03% | viability, T/C (second compound 0.316 µM, first compound 10 µM): 0.75% | viability, T/C [13]: 0.18% | viability, T/C [14]: 0.12% | viability, T/C [15]: 0.13% | viability, T/C [16]: 0.11% | viability, T/C (second compound 1 µM, first compound 3.16 µM): 0.07% | viability, T/C (second compound 1 µM, first compound 10 µM): 0.06% | viability, T/C [17]: 0.43% | viability, T/C [18]: 0.67% | viability, T/C [19]: 0.28% | viability, T/C [20]: 0.23% | viability, T/C (second compound 3.16 µM, first compound 3.16 µM): 0.24% | viability, T/C (second compound 3.16 µM, first compound 10 µM): 0.18% | viability, T/C [21]: 0.28% | viability, T/C [22]: 0.21% | viability, T/C [23]: 0.23% | viability, T/C [24]: 0.3% | viability, T/C (second compound 10 µM, first compound 3.16 µM): 0.29% | viability, T/C (second compound 10 µM, first compound 10 µM): 0.26%

CCN1CCN(Cc2ccc(Nc3ncc(F)c(-c4cc(F)c5nc(C)n(C(C)C)c5c4)n3)nc2)CC1 + CN1CCN(c2cc(C(=O)Nc3cc4cc(-c5cnn(C)c5)ccc4cn3)ccn2)CC1
IC50 (second compound 0.0316 µM): 262 nM | IC50 (second compound 0.1 µM): 158 nM | IC50 (second compound 0.316 µM): < 3.16 nM | IC50 (second compound 1 µM): < 3.16 nM | IC50 (second compound 3.16 µM): < 3.16 nM | IC50 (second compound 10 µM): < 3.16 nM | viability, T/C [25]: 82.8% | viability, T/C [26]: 97.1% | viability, T/C [1]: 87.7% | viability, T/C [2]: 56.2% | viability, T/C [3]: 54.6% | viability, T/C [4]: 42.9% | viability, T/C [27]: 66.3% | viability, T/C [28]: 72.4% | viability, T/C [5]: 76.2% | viability, T/C [6]: 59.9% | viability, T/C [7]: 34.8% | viability, T/C [8]: 30.4% | viability, T/C [29]: 7.42% | viability, T/C [30]: 10.2% | viability, T/C [9]: 14.1% | viability, T/C [10]: 13.1% | viability, T/C [11]: 18% | viability, T/C [12]: 14.3% | viability, T/C [31]: 0.35% | viability, T/C [32]: 0.82% | viability, T/C [13]: 1.18% | viability, T/C [14]: 0.5% | viability, T/C [15]: 0.97% | viability, T/C [16]: 1.71% | viability, T/C [33]: 0.55% | viability, T/C [34]: 1.57% | viability, T/C [17]: 0.95% | viability, T/C [18]: 0.83% | viability, T/C [19]: 2.86% | viability, T/C [20]: 2.68% | viability, T/C [35]: 0.5% | viability, T/C [36]: 0.53% | viability, T/C [21]: 0.3% | viability, T/C [22]: 0.46% | viability, T/C [23]: 0.64% | viability, T/C [24]: 0.65%

COc1c(OCCCN2CCOCC2)ccc2c3n(c(=NC(=O)c4cnc(N)nc4)nc12)CCN3 + CN1CCN(c2cc(C(=O)Nc3cc4cc(-c5cnn(C)c5)ccc4cn3)ccn2)CC1
IC50 (second compound 0.0316 µM): 16.8 nM | IC50 (second compound 0.1 µM): 16.1 nM | IC50 (second compound 0.316 µM): < 3.16 nM | IC50 (second compound 1 µM): < 3.16 nM | IC50 (second compound 3.16 µM): < 3.16 nM | IC50 (second compound 10 µM): < 3.16 nM | viability, T/C [25]: 99.6% | viability, T/C [26]: 62.2% | viability, T/C [1]: 36.4% | viability, T/C [2]: 11.9% | viability, T/C [3]: 3.81% | viability, T/C [4]: 2.23% | viability, T/C [27]: 72.3% | viability, T/C [28]: 63.5% | viability, T/C [5]: 31.1% | viability, T/C [6]: 10.7% | viability, T/C [7]: 3.24% | viability, T/C [8]: 2.43% | viability, T/C [29]: 8.06% | viability, T/C [30]: 6.72% | viability, T/C [9]: 3.02% | viability, T/C [10]: 1.03% | viability, T/C [11]: 0.35% | viability, T/C [12]: 0.51% | viability, T/C [31]: 0.24% | viability, T/C [32]: 0.17% | viability, T/C [13]: 0.09% | viability, T/C [14]: 0.07% | viability, T/C [15]: 0.05% | viability, T/C [16]: 0.12% | viability, T/C [33]: 0.37% | viability, T/C [34]: 0.37% | viability, T/C [17]: 0.6% | viability, T/C [18]: 0.12% | viability, T/C [19]: 0.13% | viability, T/C [20]: 0.1% | viability, T/C [35]: 0.23% | viability, T/C [36]: 0.33% | viability, T/C [21]: 0.19% | viability, T/C [22]: 0.18% | viability, T/C [23]: 0.32% | viability, T/C [24]: 0.15%
